Test results published in ChEMBL document CHEMBL1201862, “PubChem BioAssay data set” (2004).
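Method: 48-hour compound exposure of cells in 96-well plates, five concentrations, linear interpolation of endpoints. GI50 is the concentration that inhibits growth by half.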 Calls of active or inactive are those of the source. Cut-off read from the data, not from the text of the source: active = GI50 up to about 1.1 µM and inactive = higher.

Legend:
Test in all cases: inhibition of tumour cell growth, NCI panel, 48 h
[1] = system: LOX IMVI
[2] = system: BT-549
[3] = system: CCRF-CEM
[4] = system: SNB-19
[5] = system: SF-295
[6] = system: IGROV-1
[7] = system: UACC-62
[8] = system: K562
[9] = system: HOP-92
[10] = system: CAKI-1
[11] = system: SF-268
[12] = system: SK-MEL-5
[13] = system: SW-620
[14] = system: MCF7
[15] = system: NCI-H23
[16] = system: U-251
[17] = system: SK-MEL-2
[18] = system: SNB-75
[19] = system: SF-539
[20] = system: A498

| SMILES | GI50 [1] | GI50 [2] | GI50 [3] | GI50 [4] | GI50 [5] | GI50 [6] | GI50 [7] | GI50 [8] | GI50 [9] | GI50 [10] | GI50 [11] | GI50 [12] | GI50 [13] | GI50 [14] | GI50 [15] | GI50 [16] | GI50 [17] | GI50 [18] | GI50 [19] | GI50 [20] |
| --- | --- | --- | --- | --- | --- | --- | --- | --- | --- | --- | --- | --- | --- | --- | --- | --- | --- | --- | --- | --- |
| Cn1c2ccccc2c2c3c(c4c5ccccc5n(C)c4c21)C(=O)NC3=O | > 34.8 µM (inactive) | > 42.4 µM (inactive) | > 100 µM (inactive) | 15.3 µM (inactive) | 20.4 µM (inactive) | 5.71 µM (inactive) | > 32.9 µM (inactive) | > 54.6 µM (inactive) | > 36.7 µM (inactive) | 0.0256 µM (active) | 97.5 µM (inactive) | 20.7 µM (inactive) | > 74.6 µM (inactive) | 37.8 µM (inactive) | 15.1 µM (inactive) | 16.8 µM (inactive) | > 26.5 µM (inactive) | 29 µM (inactive) | 10.2 µM (inactive) | – |
| NC(=O)c1ccc(C(=O)Nc2ccc([As](=O)(O)O)cc2)cc1 | > 100 µM (inactive) | > 100 µM (inactive) | > 100 µM (inactive) | > 100 µM (inactive) | > 100 µM (inactive) | > 100 µM (inactive) | > 100 µM (inactive) | > 100 µM (inactive) | > 100 µM (inactive) | > 100 µM (inactive) | > 100 µM (inactive) | > 100 µM (inactive) | > 100 µM (inactive) | > 100 µM (inactive) | > 100 µM (inactive) | > 100 µM (inactive) | > 100 µM (inactive) | > 100 µM (inactive) | – | > 100 µM (inactive) |
| COC1(c2ccccc2)N=C(S)NN=C1c1ccccc1 (configuration not stated) | 36.1 µM (inactive) | 28.2 µM (inactive) | 28.2 µM (inactive) | 54.2 µM (inactive) | 30.5 µM (inactive) | 34.8 µM (inactive) | 51.4 µM (inactive) | 33.4 µM (inactive) | > 100 µM (inactive) | 73.8 µM (inactive) | 37.2 µM (inactive) | 29.5 µM (inactive) | 38.6 µM (inactive) | 38 µM (inactive) | 36.6 µM (inactive) | 21.2 µM (inactive) | 27.9 µM (inactive) | 38.5 µM (inactive) | – | > 100 µM (inactive) |
| CCOC(=O)c1cc2c(=Cc3ccc(N(C)C)cc3)c3ccccc3n2[n+]1C | 1.47 µM (inactive) | 0.577 µM (active) | – | 2.15 µM (inactive) | 3.72 µM (inactive) | – | 1.33 µM (inactive) | 0.787 µM (active) | 2.88 µM (inactive) | 1.64 µM (inactive) | 3.21 µM (inactive) | 1.32 µM (inactive) | 0.637 µM (active) | 2.34 µM (inactive) | 2.55 µM (inactive) | 0.304 µM (active) | 1.48 µM (inactive) | – | 0.577 µM (active) | 10.4 µM (inactive) |
| Cc1nc2ccccc2c(=O)n1NC(=O)Cc1ccccc1 | > 100 µM (inactive) | > 100 µM (inactive) | > 100 µM (inactive) | > 100 µM (inactive) | > 100 µM (inactive) | > 100 µM (inactive) | 43.5 µM (inactive) | > 100 µM (inactive) | > 100 µM (inactive) | – | > 100 µM (inactive) | > 100 µM (inactive) | > 100 µM (inactive) | > 100 µM (inactive) | > 100 µM (inactive) | > 100 µM (inactive) | – | 31 µM (inactive) | > 100 µM (inactive) | > 100 µM (inactive) |
| C[N+]1(c2ccccc2)C=C(c2ccccc2)SC1=S (configuration not stated) | > 100 µM (inactive) | > 100 µM (inactive) | – | > 100 µM (inactive) | > 100 µM (inactive) | > 100 µM (inactive) | > 100 µM (inactive) | 42.7 µM (inactive) | – | > 100 µM (inactive) | > 100 µM (inactive) | 33.4 µM (inactive) | > 100 µM (inactive) | 41.7 µM (inactive) | > 100 µM (inactive) | > 100 µM (inactive) | 58.3 µM (inactive) | – | > 100 µM (inactive) | 6.12 µM (inactive) |
| Cc1cc(C)nc(NS(=O)(=O)c2ccc(NC(=O)c3ccc4nc5ccccc5c(Nc5ccc(S(N)(=O)=O)cc5)c4c3)cc2)n1 | 45.6 µM (inactive) | 28.2 µM (inactive) | 28.2 µM (inactive) | > 100 µM (inactive) | > 100 µM (inactive) | > 100 µM (inactive) | > 100 µM (inactive) | 40 µM (inactive) | 51.3 µM (inactive) | > 100 µM (inactive) | > 100 µM (inactive) | > 100 µM (inactive) | > 100 µM (inactive) | 49.2 µM (inactive) | > 100 µM (inactive) | 59 µM (inactive) | 42.9 µM (inactive) | > 100 µM (inactive) | > 100 µM (inactive) | – |
| C#C[C@]1(O)CC[C@H]2[C@@H]3CCC4=C/C(=N/CCOC(=O)c5cccc6cc7ccccc7nc56)CC[C@@H]4[C@H]3CC[C@@]21C | 12.3 µM (inactive) | 24.2 µM (inactive) | > 100 µM (inactive) | 30.4 µM (inactive) | 22.3 µM (inactive) | 13.8 µM (inactive) | 22 µM (inactive) | > 100 µM (inactive) | 20.7 µM (inactive) | 42.4 µM (inactive) | 20.6 µM (inactive) | 23.7 µM (inactive) | 57.3 µM (inactive) | 17.3 µM (inactive) | 19.9 µM (inactive) | 12.7 µM (inactive) | 21.7 µM (inactive) | – | – | 41 µM (inactive) |
| CNC(=O)C1(N)c2ccccc2C=Cc2ccccc21 | > 100 µM (inactive) | > 100 µM (inactive) | > 100 µM (inactive) | > 100 µM (inactive) | > 100 µM (inactive) | > 100 µM (inactive) | > 100 µM (inactive) | > 100 µM (inactive) | > 100 µM (inactive) | > 100 µM (inactive) | > 100 µM (inactive) | > 100 µM (inactive) | > 100 µM (inactive) | > 100 µM (inactive) | > 100 µM (inactive) | > 100 µM (inactive) | > 100 µM (inactive) | – | > 100 µM (inactive) | > 100 µM (inactive) |
| CCOC(=O)c1c(NC(=O)c2ccccc2)sc2c1CCC2 | – | > 100 µM (inactive) | > 100 µM (inactive) | > 100 µM (inactive) | > 100 µM (inactive) | > 100 µM (inactive) | > 100 µM (inactive) | > 100 µM (inactive) | – | > 100 µM (inactive) | > 100 µM (inactive) | > 100 µM (inactive) | – | > 100 µM (inactive) | > 100 µM (inactive) | – | > 100 µM (inactive) | > 100 µM (inactive) | > 100 µM (inactive) | > 100 µM (inactive) |
| O=C(N/N=C(COc1ccccc1)\N=C\c1cccnc1)c1ccncc1 | > 100 µM (inactive) | > 100 µM (inactive) | > 100 µM (inactive) | > 100 µM (inactive) | > 100 µM (inactive) | > 100 µM (inactive) | > 100 µM (inactive) | > 100 µM (inactive) | – | > 100 µM (inactive) | > 100 µM (inactive) | – | > 100 µM (inactive) | > 100 µM (inactive) | > 100 µM (inactive) | > 100 µM (inactive) | > 100 µM (inactive) | 36.8 µM (inactive) | > 100 µM (inactive) | > 100 µM (inactive) |
| O=C(Nc1ccccc1)c1cc(S(=O)(=O)Nc2n[nH]c(=O)n2-c2ccccc2)c(S)cc1Cl | > 100 µM (inactive) | > 100 µM (inactive) | – | > 100 µM (inactive) | – | > 100 µM (inactive) | > 100 µM (inactive) | > 100 µM (inactive) | > 100 µM (inactive) | > 100 µM (inactive) | > 100 µM (inactive) | > 100 µM (inactive) | > 100 µM (inactive) | > 100 µM (inactive) | – | > 100 µM (inactive) | > 100 µM (inactive) | > 100 µM (inactive) | > 100 µM (inactive) | > 100 µM (inactive) |
| C[C@@H]1C[C@H]2[C@@H]3CCC4=CC(=O)C=C[C@]4(C)[C@@]3(Cl)[C@@H](Cl)C[C@]2(C)[C@@]1(O)C(=O)COP(=O)(O)O | > 100 µM (inactive) | 52.1 µM (inactive) | – | > 100 µM (inactive) | > 100 µM (inactive) | > 100 µM (inactive) | > 100 µM (inactive) | 7.41 µM (inactive) | > 100 µM (inactive) | > 100 µM (inactive) | > 100 µM (inactive) | > 100 µM (inactive) | > 100 µM (inactive) | > 100 µM (inactive) | > 100 µM (inactive) | > 100 µM (inactive) | > 100 µM (inactive) | > 100 µM (inactive) | – | > 100 µM (inactive) |
| C=C(CN1CC2C[C@](C(=O)OC)(c3cc4ccccc4[nH]3)C1C(OC)C2OC)S(=O)(=O)c1ccccc1 (some centres not stated) | 1.85 µM (inactive) | 3.85 µM (inactive) | 2.24 µM (inactive) | 10.8 µM (inactive) | 4.65 µM (inactive) | 2.6 µM (inactive) | 4.11 µM (inactive) | 2.75 µM (inactive) | 0.729 µM (active) | 3.71 µM (inactive) | 4.43 µM (inactive) | 4.44 µM (inactive) | 3.01 µM (inactive) | 3.81 µM (inactive) | 2.91 µM (inactive) | 2.88 µM (inactive) | 4.17 µM (inactive) | 2.74 µM (inactive) | 4.9 µM (inactive) | – |
| CN(C)Cc1cc(C(=O)/C=C/c2ccc([N+](=O)[O-])cc2)cc(CN(C)C)c1O | 2.24 µM (inactive) | 13.6 µM (inactive) | 3.3 µM (inactive) | 83.4 µM (inactive) | 22.3 µM (inactive) | 12.2 µM (inactive) | 13.9 µM (inactive) | 4.13 µM (inactive) | 8.83 µM (inactive) | – | 16 µM (inactive) | 11.3 µM (inactive) | 10.3 µM (inactive) | 13.3 µM (inactive) | 18.3 µM (inactive) | 3.18 µM (inactive) | 11.1 µM (inactive) | 2.97 µM (inactive) | 18.5 µM (inactive) | 11 µM (inactive) |
